Laboratory results taken from patent US10278942B2 (PELOTON THERAPEUTICS, INC., priority 2015, dated 2019).

Legend:
[1] = molecular target: T1, HIF-2α HIS TAG-PASB Domain (Homo sapiens, UniProt Q99814); test: HIF-2α Scintillation Proximity Assay (SPA); type: binding; conditions: read-out: Scintillation Proximity Assay IC50
T1 construct: 100 nM HIF-2α HIS TAG-PASB Domain
Summary of the method: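 IC50 values rest on percent inhibition, where the sample signal is scaled between high and low controls. Wells contain about 100 μL: compound dispensed as 2 μL of DMSO solution, 88 μL protein-probe mix and 10 μL of beads.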

786-O cells = test: VEGF ELISA Assay; type: cell-based; conditions: Homo sapiens, 786-0
Procedure: Each concentration was plated in duplicate. About 20 hours later, medium was removed by suction and each well was supplied with 180 μL of growth medium. About 20 μl freshly-made 10× compound stocks were added to each well. […] The EC50 was calculated by GraphPad Prism using the dose-response-inhibition (four parameter) equation. The cell-seeded plate was then subjected to CellTiter-Glo luminescence cell viability assay (Promega) by adding 50 μL of Celltiter Glo reagent into each well and shaking the plate for 8 minutes at 550 rpm (Thermomixer R, Eppendorf) then the luminescence signal immediately read in a plate reader (3 second delay, 0.5 second/well integration time, Synergy 2 multi Detection Microplate reader).

786-O-Hif-Luc cells = test: Luciferase Assay (HIF responsive elements reporter); conditions: read-out: Mean Luciferase EC50 (nM), 786-O-Hif-Luc cells
Procedure: A pool of infected cells were then selected against 2 μg/mL of puromycin (P8833, Sigma) for 10 days followed by limited dilution to select single clones. […] Each concentration was tested in triplicate. After about 24 hours, luciferase activity was determined using ONE-Glo Luciferase Assay Reagent (E6110, Promega) following the manufacturer's recommended procedure. EC50 were calculated using Dotmatics software.

T1 sequence (Q99814 240-350 limits assumed): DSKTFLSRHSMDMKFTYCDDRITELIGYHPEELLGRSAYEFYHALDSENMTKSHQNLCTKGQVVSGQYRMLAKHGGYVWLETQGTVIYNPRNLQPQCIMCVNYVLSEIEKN

Row | Structure (SMILES) | IC50 [1] [nM] | EC50 (786-O cells) [nM] | EC50 (786-O-Hif-Luc cells) [nM]
1 | O=S(=O)(CF)c1ccc(Oc2cc(F)cc(F)c2)c2c1[C@H](O)C(F)(F)C2 [Compound 64] | < 50 | < 50 | < 50
2 | O=S(=O)(c1ccc(OC2CCOCC2)c2c1[C@H](O)C(F)(F)C2)C(F)F [Compound 783] | < 50 | 50 to 249 | < 50
3 | CC1(O)c2c(ccc(Oc3cc(F)cc(F)c3)c2C#N)S(=O)(=O)C1(F)F (stereo not drawn) [Compound 446] | < 50 | < 50 | < 50
4 | O=S(=O)(c1ccc(OCC(F)F)c2c1[C@H](O)C(F)(F)C2)C(F)(F)F [Compound 571] | < 50 | < 50 | < 50
5 | O=S(=O)(c1ccc(Oc2ccc(F)c(F)c2)c2c1[C@H](O)C(F)(F)C2)C(F)F [Compound 196] | < 50 | < 50 | < 50
6 | CS(=O)(=O)c1ccc(Oc2cc(F)cc(C#N)c2)c2c1[C@H](O)C(F)(F)[C@@H]2F [Compound 292, 3-fluoro-5-[(1S,3R)-2,2,3-trifluoro-1-hydroxy-7-methylsulfonyl-indan-4-yl]oxy-benzonitrile] | < 50 | < 50 | < 50
7 | CS(=O)(=O)c1ccc(O[C@H]2C[C@H](F)C2)c2c1[C@H](O)C(F)(F)[C@@H]2F [Compound 736] | < 50 | 50 to 249 | 50 to 249
8 | O=S(=O)(c1ccc(OC2CCCCC2)c2c1C(O)C(F)(F)C2)C(F)(F)F (stereo not drawn) [Compound 617] | < 50 | < 50 | < 50
9 | N#CC1(COc2ccc(S(=O)(=O)C(F)(F)F)c3c2CC(F)(F)C3O)CC1 (stereo not drawn) [Compound 620] | 50 to 249 | 50 to 249 | 50 to 249
10 | O=S(=O)(c1ccc(OC2CCCC2)c2c1C(O)C(F)(F)C2)C(F)(F)F (stereo not drawn) [Compound 605] | < 50 | 50 to 249 | < 50
11 | O=S1(=O)c2ccc(Oc3cncc(Cl)c3)c(Br)c2[C@@H](O)C1(F)F [Compound 421] | 50 to 249 | 50 to 249 | 50 to 249
12 | O=S(=O)(c1ccc(Oc2cncc(F)c2)c2c1[C@H](O)C(F)(F)C2)C(F)(F)F [Compound 309] | < 50 | < 50 | < 50
13 | CS(=O)(=O)c1ccc(Oc2cc(F)cc(Br)c2)c2c1[C@H](O)C(F)(F)C2 [Compound 304] | < 50 | 50 to 249 | < 50
14 | N#Cc1cc(F)cc(Oc2ccc(S(=O)(=O)C(F)F)cc2Br)c1 [Compound 132] | 250 to 1000 | 250 to 1000 | > 1000
15 | O=S(=O)(c1ccc(OCCF)c2c1[C@H](O)C(F)(F)C2)C(F)(F)F [Compound 706] | 50 to 249 | 50 to 249 | 50 to 249
16 | O=S(=O)(c1ccc(OC2CCOCC2)c2c1[C@H](O)C(F)(F)C2)C(F)(F)F [Compound 744] | < 50 | < 50 | < 50
17 | N#Cc1cc(F)cc(Oc2ccc3c(c2Cl)[C@@H](O)C(F)(F)S3(=O)=O)c1 [Compound 431] | < 50 | 50 to 249 | < 50
18 | N#Cc1cc(Oc2ccc(S(=O)(=O)C(F)(F)F)c3c2CC(F)(F)[C@H]3O)ccc1F [Compound 228] | < 50 | < 50 | < 50
19 | CS(=O)(=O)c1ccc(OC2CC(F)(F)C2)c2c1[C@H](O)C(F)(F)C2 [Compound 734] | 50 to 249 | 250 to 1000 | 50 to 249
